Experimental data as given in ChEMBL document CHEMBL3991601, “The target landscape of clinical kinase drugs” (Science, 2017).
Calls of active or inactive are those of the source.

Assays:
[1] = molecular target: ALK tyrosine kinase receptor (Homo sapiens, UniProt Q9UM73); type: subcellular, K-562, COLO 205, SK-N-BE(2) and MV-4-11, Cell lysate; conditions: read-out: Kd apparent
[2] = molecular target: Ras-related C3 botulinum toxin substrate 1 (Homo sapiens, UniProt P63000)
[3] = molecular target: Serine/threonine-protein kinase 24 (Homo sapiens, UniProt Q9Y6E0)
[4] = molecular target: Dual specificity protein kinase CLK4 (Homo sapiens, UniProt Q9HAZ1)
[5] = molecular target: T1, Isoleucine--tRNA ligase, mitochondrial (Homo sapiens, UniProt Q9NSE4)
T1 sequence (Q9NSE4 whole entry): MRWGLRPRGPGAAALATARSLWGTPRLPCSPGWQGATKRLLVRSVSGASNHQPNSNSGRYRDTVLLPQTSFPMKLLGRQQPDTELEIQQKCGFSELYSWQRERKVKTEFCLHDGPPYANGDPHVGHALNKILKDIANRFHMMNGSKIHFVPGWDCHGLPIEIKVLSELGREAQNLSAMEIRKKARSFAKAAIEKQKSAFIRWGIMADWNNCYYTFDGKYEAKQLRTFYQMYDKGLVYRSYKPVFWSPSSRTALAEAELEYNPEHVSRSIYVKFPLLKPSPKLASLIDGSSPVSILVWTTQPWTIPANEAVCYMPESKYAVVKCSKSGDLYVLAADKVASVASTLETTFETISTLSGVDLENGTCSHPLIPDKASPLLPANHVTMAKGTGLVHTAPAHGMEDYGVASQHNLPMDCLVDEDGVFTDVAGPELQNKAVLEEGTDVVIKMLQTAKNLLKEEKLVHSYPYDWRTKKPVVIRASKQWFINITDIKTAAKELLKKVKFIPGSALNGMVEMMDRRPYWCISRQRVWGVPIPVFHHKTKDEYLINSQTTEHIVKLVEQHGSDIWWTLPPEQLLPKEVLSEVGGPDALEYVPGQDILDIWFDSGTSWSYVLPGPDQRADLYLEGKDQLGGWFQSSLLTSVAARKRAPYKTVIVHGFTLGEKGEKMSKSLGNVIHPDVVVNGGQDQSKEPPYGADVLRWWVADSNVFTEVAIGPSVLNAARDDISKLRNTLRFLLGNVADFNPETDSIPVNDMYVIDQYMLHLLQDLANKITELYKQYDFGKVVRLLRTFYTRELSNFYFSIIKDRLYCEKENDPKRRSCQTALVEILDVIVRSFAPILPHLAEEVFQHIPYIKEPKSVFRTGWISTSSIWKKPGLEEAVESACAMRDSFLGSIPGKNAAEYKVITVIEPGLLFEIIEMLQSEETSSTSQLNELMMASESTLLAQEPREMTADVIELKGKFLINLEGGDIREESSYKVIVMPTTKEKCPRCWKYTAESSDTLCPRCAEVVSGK

[6] = molecular target: MAP kinase-activated protein kinase 3 (Homo sapiens, UniProt Q16644)
[7] = molecular target: Cell division cycle 7-related protein kinase (Homo sapiens, UniProt O00311)
[8] = molecular target: Cyclin-dependent kinase 18 (Homo sapiens, UniProt Q07002)
[9] = molecular target: T2, Cyclin-dependent kinase-like 5 (Homo sapiens, UniProt O76039)
T2 sequence (O76039 whole entry): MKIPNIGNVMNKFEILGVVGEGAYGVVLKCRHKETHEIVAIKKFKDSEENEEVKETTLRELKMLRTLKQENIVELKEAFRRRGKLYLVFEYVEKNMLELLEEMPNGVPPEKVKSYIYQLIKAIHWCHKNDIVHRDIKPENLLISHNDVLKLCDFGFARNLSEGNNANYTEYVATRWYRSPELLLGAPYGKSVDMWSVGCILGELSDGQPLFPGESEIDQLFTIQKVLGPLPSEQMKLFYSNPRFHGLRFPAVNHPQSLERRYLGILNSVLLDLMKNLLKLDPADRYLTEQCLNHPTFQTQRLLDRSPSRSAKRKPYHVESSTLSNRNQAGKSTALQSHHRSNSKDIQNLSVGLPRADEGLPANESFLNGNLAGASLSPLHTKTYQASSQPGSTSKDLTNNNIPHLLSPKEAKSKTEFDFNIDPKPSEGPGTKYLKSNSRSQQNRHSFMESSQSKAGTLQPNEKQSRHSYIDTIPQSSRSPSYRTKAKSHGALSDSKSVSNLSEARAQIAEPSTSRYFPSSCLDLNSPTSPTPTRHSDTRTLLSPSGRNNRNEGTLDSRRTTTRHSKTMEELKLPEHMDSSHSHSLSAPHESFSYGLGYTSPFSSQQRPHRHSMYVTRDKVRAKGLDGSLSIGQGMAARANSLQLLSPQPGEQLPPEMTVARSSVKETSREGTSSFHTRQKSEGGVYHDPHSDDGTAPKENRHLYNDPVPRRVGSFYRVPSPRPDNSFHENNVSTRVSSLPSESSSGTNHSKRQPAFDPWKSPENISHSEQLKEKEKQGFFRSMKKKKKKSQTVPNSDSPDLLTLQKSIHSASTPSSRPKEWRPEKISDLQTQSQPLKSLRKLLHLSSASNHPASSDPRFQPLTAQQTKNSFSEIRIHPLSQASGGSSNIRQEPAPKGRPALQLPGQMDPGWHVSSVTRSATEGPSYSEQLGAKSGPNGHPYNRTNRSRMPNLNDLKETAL

Measured: Kd
Further: in the data inactive means no Kd found up to 30 µM.

Chain of Dual specificity protein kinase CLK4 (Q9HAZ1 whole entry): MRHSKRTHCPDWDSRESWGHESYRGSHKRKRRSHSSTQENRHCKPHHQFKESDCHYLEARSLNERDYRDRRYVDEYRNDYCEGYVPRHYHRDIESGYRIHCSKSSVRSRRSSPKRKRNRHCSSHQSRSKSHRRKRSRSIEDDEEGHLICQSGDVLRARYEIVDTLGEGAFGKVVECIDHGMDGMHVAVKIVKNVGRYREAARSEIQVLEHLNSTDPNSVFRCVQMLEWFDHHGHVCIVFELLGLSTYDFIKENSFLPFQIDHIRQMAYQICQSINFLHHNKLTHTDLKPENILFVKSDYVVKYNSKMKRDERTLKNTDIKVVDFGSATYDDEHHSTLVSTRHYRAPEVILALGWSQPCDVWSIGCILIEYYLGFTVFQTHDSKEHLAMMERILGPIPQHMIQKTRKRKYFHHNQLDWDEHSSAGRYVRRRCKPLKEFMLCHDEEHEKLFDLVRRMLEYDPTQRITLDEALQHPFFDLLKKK
Chain of Serine/threonine-protein kinase 24 (Q9Y6E0 whole entry): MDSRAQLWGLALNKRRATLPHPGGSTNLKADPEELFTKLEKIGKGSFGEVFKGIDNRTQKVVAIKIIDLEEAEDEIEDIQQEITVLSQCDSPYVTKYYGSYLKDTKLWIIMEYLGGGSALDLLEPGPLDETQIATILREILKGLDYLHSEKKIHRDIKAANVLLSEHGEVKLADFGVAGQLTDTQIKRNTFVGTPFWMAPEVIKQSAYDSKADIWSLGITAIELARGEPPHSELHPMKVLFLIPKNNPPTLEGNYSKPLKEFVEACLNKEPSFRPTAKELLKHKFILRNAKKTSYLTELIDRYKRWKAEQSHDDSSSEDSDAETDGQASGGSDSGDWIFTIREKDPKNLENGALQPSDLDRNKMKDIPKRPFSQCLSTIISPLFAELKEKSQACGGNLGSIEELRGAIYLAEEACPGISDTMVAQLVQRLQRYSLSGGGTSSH
Chain of ALK tyrosine kinase receptor (Q9UM73 whole entry): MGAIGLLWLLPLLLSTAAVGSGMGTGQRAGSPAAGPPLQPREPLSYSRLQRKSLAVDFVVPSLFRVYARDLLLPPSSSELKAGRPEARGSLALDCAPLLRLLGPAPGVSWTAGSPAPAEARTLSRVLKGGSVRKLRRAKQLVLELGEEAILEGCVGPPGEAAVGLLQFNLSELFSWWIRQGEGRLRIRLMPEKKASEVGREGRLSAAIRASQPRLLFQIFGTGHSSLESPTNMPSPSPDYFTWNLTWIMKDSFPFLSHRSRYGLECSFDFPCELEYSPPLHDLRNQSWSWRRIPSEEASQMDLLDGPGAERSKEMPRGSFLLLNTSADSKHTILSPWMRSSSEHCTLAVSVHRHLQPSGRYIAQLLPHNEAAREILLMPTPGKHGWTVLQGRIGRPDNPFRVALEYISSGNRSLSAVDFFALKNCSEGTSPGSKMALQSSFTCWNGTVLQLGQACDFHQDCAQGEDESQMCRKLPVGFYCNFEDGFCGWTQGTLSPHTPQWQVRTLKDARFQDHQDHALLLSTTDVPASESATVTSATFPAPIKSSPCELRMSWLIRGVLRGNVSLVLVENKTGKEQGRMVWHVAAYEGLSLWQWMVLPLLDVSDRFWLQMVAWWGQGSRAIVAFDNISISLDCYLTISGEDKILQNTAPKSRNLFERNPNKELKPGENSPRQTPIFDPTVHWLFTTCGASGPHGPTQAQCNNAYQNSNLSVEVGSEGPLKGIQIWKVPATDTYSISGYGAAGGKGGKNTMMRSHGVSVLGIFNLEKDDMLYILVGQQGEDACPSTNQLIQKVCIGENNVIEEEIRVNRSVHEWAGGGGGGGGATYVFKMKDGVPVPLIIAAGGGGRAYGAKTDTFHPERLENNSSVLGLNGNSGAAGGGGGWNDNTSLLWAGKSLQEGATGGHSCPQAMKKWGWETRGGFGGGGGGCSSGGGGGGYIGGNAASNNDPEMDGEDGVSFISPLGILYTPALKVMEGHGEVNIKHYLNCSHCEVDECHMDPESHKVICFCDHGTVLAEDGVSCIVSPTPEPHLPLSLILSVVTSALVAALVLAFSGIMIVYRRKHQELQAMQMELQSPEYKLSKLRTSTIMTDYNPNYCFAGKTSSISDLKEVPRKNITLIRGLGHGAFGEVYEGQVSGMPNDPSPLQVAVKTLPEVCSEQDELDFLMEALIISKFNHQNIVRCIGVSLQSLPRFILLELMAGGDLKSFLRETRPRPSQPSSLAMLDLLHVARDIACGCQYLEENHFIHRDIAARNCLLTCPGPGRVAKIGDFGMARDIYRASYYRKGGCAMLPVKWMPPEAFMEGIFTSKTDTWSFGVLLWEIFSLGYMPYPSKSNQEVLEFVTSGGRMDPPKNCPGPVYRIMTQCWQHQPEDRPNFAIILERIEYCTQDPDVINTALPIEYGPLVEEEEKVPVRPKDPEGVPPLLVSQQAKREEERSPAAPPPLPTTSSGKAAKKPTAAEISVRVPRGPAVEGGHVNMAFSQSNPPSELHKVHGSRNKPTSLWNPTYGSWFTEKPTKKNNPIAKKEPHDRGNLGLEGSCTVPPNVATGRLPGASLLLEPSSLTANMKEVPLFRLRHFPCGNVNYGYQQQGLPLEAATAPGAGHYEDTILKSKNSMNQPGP
Chain of MAP kinase-activated protein kinase 3 (Q16644 whole entry): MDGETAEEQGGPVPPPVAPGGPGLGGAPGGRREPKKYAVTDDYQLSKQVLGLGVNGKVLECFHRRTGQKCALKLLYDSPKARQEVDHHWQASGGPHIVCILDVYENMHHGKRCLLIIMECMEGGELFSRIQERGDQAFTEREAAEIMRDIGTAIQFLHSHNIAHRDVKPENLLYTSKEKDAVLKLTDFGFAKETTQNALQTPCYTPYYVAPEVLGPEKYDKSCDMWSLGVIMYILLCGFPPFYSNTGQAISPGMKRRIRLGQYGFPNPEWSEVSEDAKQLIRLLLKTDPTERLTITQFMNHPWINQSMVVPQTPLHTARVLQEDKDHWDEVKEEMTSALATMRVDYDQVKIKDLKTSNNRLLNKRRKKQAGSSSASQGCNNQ
Chain of Cyclin-dependent kinase 18 (Q07002 whole entry): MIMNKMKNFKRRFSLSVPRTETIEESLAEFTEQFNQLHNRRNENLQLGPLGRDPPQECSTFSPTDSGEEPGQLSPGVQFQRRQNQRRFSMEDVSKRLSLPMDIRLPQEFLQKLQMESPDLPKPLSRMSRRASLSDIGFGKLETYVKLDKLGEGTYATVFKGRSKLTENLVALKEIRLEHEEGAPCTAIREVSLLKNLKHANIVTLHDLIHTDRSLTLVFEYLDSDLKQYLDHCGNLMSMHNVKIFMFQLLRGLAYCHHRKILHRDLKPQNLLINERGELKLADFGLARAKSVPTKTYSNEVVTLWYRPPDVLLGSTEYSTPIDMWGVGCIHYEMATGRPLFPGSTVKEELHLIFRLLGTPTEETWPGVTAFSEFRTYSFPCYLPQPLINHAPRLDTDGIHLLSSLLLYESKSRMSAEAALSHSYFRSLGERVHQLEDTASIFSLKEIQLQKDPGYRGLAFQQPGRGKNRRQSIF
Chain of Cell division cycle 7-related protein kinase (O00311 whole entry): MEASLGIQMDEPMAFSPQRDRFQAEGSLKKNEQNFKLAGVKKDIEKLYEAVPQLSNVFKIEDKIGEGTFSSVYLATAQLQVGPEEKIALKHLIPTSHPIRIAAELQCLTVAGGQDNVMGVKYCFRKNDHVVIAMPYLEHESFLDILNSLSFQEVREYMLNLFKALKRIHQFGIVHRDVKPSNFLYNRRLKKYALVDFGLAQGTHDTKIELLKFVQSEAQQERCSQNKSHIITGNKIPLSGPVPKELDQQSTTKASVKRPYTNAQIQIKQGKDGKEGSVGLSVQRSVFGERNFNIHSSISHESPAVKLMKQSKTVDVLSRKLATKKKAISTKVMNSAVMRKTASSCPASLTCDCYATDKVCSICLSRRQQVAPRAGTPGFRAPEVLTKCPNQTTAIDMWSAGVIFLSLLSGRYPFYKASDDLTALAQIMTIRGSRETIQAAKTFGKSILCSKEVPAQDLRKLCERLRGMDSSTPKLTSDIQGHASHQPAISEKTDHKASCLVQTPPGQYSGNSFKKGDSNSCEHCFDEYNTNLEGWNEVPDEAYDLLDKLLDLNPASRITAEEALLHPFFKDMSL

O=C(Nc1nc2cccc(-c3ccc(CN4CCS(=O)(=O)CC4)cc3)n2n1)C1CC1 [FILGOTINIB]
inactive: [1] > 30 µM | [2] > 30 µM | [3] > 30 µM | [4] > 30 µM | [5] > 30 µM

Cc1cc(Nc2ncnc3ccc(NC4=NC(C)(C)CO4)cc23)ccc1Oc1ccn2ncnc2c1 [TUCATINIB]
inactive: [6] > 30 µM | [7] > 30 µM | [1] > 30 µM | [8] > 30 µM | [2] > 30 µM | [3] > 30 µM | [9] > 30 µM | [4] > 30 µM | [5] > 30 µM
